Laboratory results from ChEMBL document CHEMBL1799954, “Structure and cytotoxicity of diterpenoids from Isodon adenolomus” (J Nat Prod, 2011).

Assays:
Type in all cases: functional, cell-based
HL-60 = experiment: Cytotoxicity against human HL60 cells after 48 hrs by MTT method; conditions: HL-60, 48 h
A549 = experiment: Cytotoxicity against human A549 cells after 48 hrs by MTT method; conditions: A549, 48 h
SW480 = experiment: Cytotoxicity against human SW480 cells after 48 hrs by MTT method; conditions: SW480, 48 h
SMMC-7721 = experiment: Cytotoxicity against human SMMC7721 cells after 48 hrs by MTT method; conditions: SMMC-7721, 48 h
MCF7 = experiment: Cytotoxicity against human MCF7 cells after 48 hrs by MTT method; conditions: MCF7, 48 h

Row | Compound | IC50 (HL-60) [µM] | IC50 (A549) [µM] | IC50 (SW480) [µM] | IC50 (SMMC-7721) [µM] | IC50 (MCF7) [µM]
1 | C=C1[C@@H](O)[C@]23[C@H](O)[C@H]1CC[C@H]2[C@@]12C(=O)O[C@]3(O)[C@@H](O)[C@@H]1C(C)(C)CC[C@@H]2OC(C)=O | > 10 | > 10 | > 10 | > 10 | > 10
2 | C=C1C(=O)[C@]23C[C@H]1CC[C@H]2[C@@]12CO[C@@]3(O)[C@@H](O)[C@@H]1C(C)(C)CC[C@@H]2OC(C)=O [EFFUSANIN B] | 0.7 | 3.5 | 0.8 | 1 | 0.7
3 | C=C1[C@@H](O)[C@@]23[C@H]4O[C@H]5O[C@]2(O)[C@@H](OC(C)=O)[C@@H]2C(C)(C)CCC[C@@]52[C@@H]3[C@@H](O)C[C@@H]14 [ISOADENOLIN A] | > 10 | > 10 | > 10 | > 10 | > 10
4 | C=C1C(=O)[C@@]23[C@H]4O[C@H]5O[C@]2(O)[C@@H](O)[C@@H]2C(C)(C)CC[C@H](OC(C)=O)[C@]52[C@@H]3CC[C@@H]14 [ISOADENOLIN B] | > 10 | > 10 | > 10 | > 10 | > 10
5 | COC[C@H]1C(=O)[C@@]23[C@H]4O[C@H]5O[C@]2(O)[C@@H](O)[C@@H]2C(C)(C)CC[C@H](O)[C@]52[C@@H]3CC[C@@H]14 [ISOADENOLIN C] | > 10 | > 10 | > 10 | > 10 | > 10
6 | COC[C@@H]1C(=O)[C@]23[C@H](O)[C@H]1C[C@H](O)[C@H]2[C@@]12CCCC(C)(C)[C@H]1[C@H](O)[C@@]3(O)O[C@@H]2OC [ISOADENOLIN D] | > 10 | > 10 | > 10 | > 10 | > 10
7 | C=C1[C@@H](O)[C@]23[C@H](O)[C@H]1C[C@H](O)[C@H]2[C@@]12CCCC(C)(C)[C@H]1[C@H](O)[C@@]3(O)O[C@@H]2OC [ISOADENOLIN E] | > 10 | > 10 | > 10 | > 10 | > 10
8 | C=C1[C@@H](O)[C@]23[C@H](O)[C@H]1C[C@H](O)[C@H]2[C@@]12CCCC(C)(C)[C@H]1[C@H](OC(C)=O)[C@@]3(O)O[C@@H]2OC [ISOADENOLIN F] | > 10 | > 10 | > 10 | > 10 | > 10
9 | C=C1[C@@H](O)[C@]23[C@H](O)[C@H]1C[C@H](OC(C)=O)[C@H]2[C@@]12CCCC(C)(C)[C@H]1[C@H](O)[C@@]3(O)O[C@@H]2OC [ISOADENOLIN G] | > 10 | > 10 | > 10 | > 10 | > 10
10 | C=C1C(=O)[C@]23[C@H](O)[C@H]1CC[C@H]2[C@@]12[C@H](OC)O[C@]3(O)[C@@H](O)[C@@H]1C(C)(C)CC[C@@H]2OC(C)=O [ISOADENOLIN H] | > 10 | > 10 | > 10 | > 10 | > 10
11 | C=C1C(=O)[C@]23C[C@H]1CC=C2[C@@]12CO[C@]3(O)[C@@H](O)[C@@H]1C(C)(C)CC[C@@H]2OC(C)=O [ISOADENOLIN I] | 2.6 | 5 | 3.1 | 3 | 2.6
12 | C=C1C(=O)[C@@]23C(=CC[C@@H]1[C@H]2O)[C@@]12CO[C@]3(O)[C@@H](O)[C@@H]1C(C)(C)CC[C@@H]2OC(C)=O [ISOADENOLIN J] | > 10 | > 10 | > 10 | > 10 | > 10
13 | C=C1[C@H]2C[C@]3(C(=C[C@@H]2O)[C@@]24CO[C@]3(O)[C@@H](O)[C@@H]2C(C)(C)CC[C@@H]4OC(C)=O)[C@@H]1O [ISOADENOLIN K] | 3.5 | 14.1 | 3.1 | 5.7 | 3
14 | COC[C@H]1C(=O)[C@]23[C@H](O)[C@H]1CC[C@H]2[C@@]12CO[C@]3(O)[C@@H](O)[C@@H]1C(C)(C)CC[C@@H]2OC(C)=O [LASIOKAURININ] | 6.8 | 20.4 | 4.9 | 4.8 | 6
15 | C=C1C(=O)[C@]23[C@H](O)[C@H]1CC[C@H]2[C@@]12CO[C@@]3(O)[C@@H](O)[C@@H]1C(C)(C)CC[C@@H]2OC(C)=O [LASIOKAURIN] | 3.2 | 7.6 | 2.3 | 2 | 5.3
16 | C=C1C(=O)[C@]23C[C@H]1C[C@@H](OC(C)=O)[C@H]2[C@]12CCCC(C)(C)[C@H]1[C@H](O)[C@@]3(O)OC2 [LONGIKAURIN E] | 1.8 | 3.9 | 2.4 | 1.9 | 1.9
17 | C=C1C(=O)[C@@]23[C@@H]4O[C@H]5O[C@@]2(O)[C@@H](O)[C@@H]2C(C)(C)CCC[C@]52[C@@H]3[C@@H](O)C[C@@H]14 [MACROCALIN B] | 12.4 | 31.9 | 10.9 | 9.1 | 26.9
18 | CC(=O)O[C@H]1C(=O)[C@@]2(C)[C@H]([C@H](OC(=O)c3ccccc3)[C@]3(O)C[C@H](OC(=O)[C@H](O)[C@@H](NC(=O)c4ccccc4)c4ccccc4)C(C)=C1C3(C)C)[C@]1(OC(C)=O)CO[C@@H]1C[C@@H]2O [PACLITAXEL] | 0.01 | < 0.008 | < 0.008 | < 0.008 | < 0.008
19 | C=C1C(=O)[C@@]23[C@@H]4OC5O[C@@]2(O)[C@@H](O)[C@@H]2C(C)(C)CC[C@@H](O)[C@]52[C@@H]3CC[C@@H]14 [PONICIDIN] | 7.4 | 16.5 | 2.8 | 5 | 16.3
20 | C=C1C(=O)[C@@]23[C@@H]4O[C@H]5O[C@@]2(O)[C@@H](O)[C@@H]2C(C)(C)CCC[C@]52[C@@H]3CC[C@@H]14 [XEROPHILUSIN B] | 0.8 | 2 | 0.9 | 1.3 | 1.1
21 | C=C1C(=O)[C@]23[C@H](O)[C@H]1CC[C@H]2[C@@]12[C@H](O)O[C@]3(O)[C@@H](O)[C@@H]1C(C)(C)CC[C@@H]2OC(C)=O [XEROPHILUSIN J] | 7.6 | 21.7 | 2.7 | 4.6 | 9.7
22 | C=C1C(=O)[C@]23[C@H](O)[C@H]1CC[C@H]2[C@]12CCCC(C)(C)[C@H]1[C@H](O)[C@]3(O)OC2=O [XEROPHILUSIN N] | 3.8 | 9.7 | 3.5 | 3.6 | 7.9
